Measured values reported in patent US9284304B2, “Substituted pyrimidines as toll-like receptor modulators” (JANSSEN SCIENCES IRELAND UC, priority 2012, dated 2016).

Legend:
[1] = molecular target: T1, human TLR7 (hTLR7) (Homo sapiens, UniProt Q9NYK1); test: TLR7 cellular NFκB-luc reporter assay in transiently transfected HEK293 cells; type: cell-based; set-up: unit not given here; details: lowest effective concentration, wild type TLR7, 48 hours incubation
T1 construct: expressed in transfected cells; host or cells: HEK293
T1 sequence (Q9NYK1 27-1049): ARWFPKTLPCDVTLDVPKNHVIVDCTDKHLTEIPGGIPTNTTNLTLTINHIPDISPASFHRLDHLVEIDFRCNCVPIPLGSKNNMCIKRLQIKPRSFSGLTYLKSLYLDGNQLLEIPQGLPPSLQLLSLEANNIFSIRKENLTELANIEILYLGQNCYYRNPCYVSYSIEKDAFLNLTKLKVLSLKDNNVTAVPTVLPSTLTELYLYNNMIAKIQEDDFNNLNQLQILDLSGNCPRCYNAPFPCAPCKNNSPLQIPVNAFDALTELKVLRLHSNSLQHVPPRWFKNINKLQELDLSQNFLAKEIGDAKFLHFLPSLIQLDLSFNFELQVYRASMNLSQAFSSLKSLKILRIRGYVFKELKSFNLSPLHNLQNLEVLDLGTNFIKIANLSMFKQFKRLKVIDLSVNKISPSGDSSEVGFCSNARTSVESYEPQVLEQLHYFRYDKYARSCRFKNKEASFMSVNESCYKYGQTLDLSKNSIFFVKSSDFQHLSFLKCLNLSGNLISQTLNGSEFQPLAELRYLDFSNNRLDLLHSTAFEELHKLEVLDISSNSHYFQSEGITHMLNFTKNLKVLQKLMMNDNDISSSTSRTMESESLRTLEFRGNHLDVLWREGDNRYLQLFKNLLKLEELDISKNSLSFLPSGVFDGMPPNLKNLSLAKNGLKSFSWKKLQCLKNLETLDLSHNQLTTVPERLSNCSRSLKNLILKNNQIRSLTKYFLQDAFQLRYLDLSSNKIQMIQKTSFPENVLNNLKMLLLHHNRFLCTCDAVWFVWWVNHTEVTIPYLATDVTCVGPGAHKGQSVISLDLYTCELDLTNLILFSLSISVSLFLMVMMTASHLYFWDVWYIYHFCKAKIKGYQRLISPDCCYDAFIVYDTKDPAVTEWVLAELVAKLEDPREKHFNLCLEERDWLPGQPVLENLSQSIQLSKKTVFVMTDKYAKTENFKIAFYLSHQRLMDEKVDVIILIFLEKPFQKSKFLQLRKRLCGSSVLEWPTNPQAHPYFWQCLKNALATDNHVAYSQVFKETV
Experimental: (§1) The ability of compounds to activate human TLR7 (hTLR7) and/or TLR8 (hTLR8) was assessed in a cellular reporter assay using HEK293 cells transiently transfected with a TLR7 or TLR8 expression vector and NFκB-luc reporter construct. In one instance the TLR expression construct expresses the respective wild type sequence or a mutant sequence comprising a deletion in the second leucine-rich repeat of the TLR. […] Briefly, HEK293 cells were grown in culture medium (DMEM supplemented with 10% FCS and 2 mM Glutamine). For transfection of cells in 10 cm dishes, cells were detached with Trypsin-EDTA, transfected with a mix of CMV-TLR7 or TLR8 plasmid (750 ng), NFκB-luc plasmid (375 ng) and a transfection reagent and incubated overnight at 37° C. in a humidified 5% CO2 atmosphere. Transfected cells were then detached with Trypsin-EDTA, washed in PBS and resuspended in medium to a density of 1.67×10^5 cells/mL. Thirty microliters of cells were then dispensed into each well in 384-well plates, where 10 μL of compound in 4% DMSO was already present. Following 48 hours incubation at 37° C., 5% CO2, the luciferase activity was determined by adding 15 μl of Steady Lite Plus substrate (Perkin Elmer) to each well and readout performed on a ViewLux ultraHTS microplate imager (Perkin Elmer). Dose response curves were generated from measurements performed in quadruplicates. Lowest effective concentrations (LEC) values, defined as the concentration that induces an effect which is at least two fold above the standard deviation of the assay, were determined for each compound.

[2] = molecular target: T2, human TLR8 (hTLR8) (Homo sapiens, UniProt Q9NR97); test: TLR8 cellular NFκB-luc reporter assay in transiently transfected HEK293 cells; type: cell-based; set-up: unit not given here; details: lowest effective concentration, wild type TLR8, 48 hours incubation
T2 construct: expressed in transfected cells; host or cells: HEK293
T2 sequence (Q9NR97 27-1041): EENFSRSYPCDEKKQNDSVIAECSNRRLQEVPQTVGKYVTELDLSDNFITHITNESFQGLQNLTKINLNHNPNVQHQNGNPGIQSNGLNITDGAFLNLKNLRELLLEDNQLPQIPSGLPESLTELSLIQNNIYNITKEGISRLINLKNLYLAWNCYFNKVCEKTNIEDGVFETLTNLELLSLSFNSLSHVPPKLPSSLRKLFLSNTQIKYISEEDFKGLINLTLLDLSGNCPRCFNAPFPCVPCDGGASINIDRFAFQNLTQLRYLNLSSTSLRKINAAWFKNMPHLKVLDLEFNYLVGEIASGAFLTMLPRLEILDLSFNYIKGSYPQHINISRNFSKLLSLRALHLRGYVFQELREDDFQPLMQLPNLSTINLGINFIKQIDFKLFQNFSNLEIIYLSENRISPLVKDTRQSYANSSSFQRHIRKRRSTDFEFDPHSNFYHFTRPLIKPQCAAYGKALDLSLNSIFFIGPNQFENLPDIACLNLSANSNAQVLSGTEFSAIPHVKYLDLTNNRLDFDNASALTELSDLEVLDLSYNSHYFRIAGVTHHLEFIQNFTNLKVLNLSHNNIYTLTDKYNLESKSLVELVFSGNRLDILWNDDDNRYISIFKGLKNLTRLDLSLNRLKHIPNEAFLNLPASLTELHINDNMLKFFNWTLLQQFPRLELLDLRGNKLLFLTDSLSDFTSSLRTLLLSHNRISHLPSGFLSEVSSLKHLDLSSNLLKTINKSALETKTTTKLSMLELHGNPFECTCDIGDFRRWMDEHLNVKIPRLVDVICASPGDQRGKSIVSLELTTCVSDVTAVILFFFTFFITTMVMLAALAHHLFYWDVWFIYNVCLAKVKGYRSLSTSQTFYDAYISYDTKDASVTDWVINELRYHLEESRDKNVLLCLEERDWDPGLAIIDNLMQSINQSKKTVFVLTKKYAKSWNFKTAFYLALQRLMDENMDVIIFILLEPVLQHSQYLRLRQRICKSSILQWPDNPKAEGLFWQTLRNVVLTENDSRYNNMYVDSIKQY
Experimental: as §1

Compound | hTLR7 wt (LEC) [1] | hTLR8 wt (LEC) [2]
CCCCNc1nc(N)ncc1CCc1ccc(OC)cc1OC.Cl [Example 3] | 2.4 | 12
CCCCNc1nc(N)ncc1CCc1ccccc1.Cl [Example 2] | 6.7 | 6.5
CCCCNc1nc(N)ncc1CCc1cccs1.Cl [Example 8] | 8.1 | 3.6
CCCCNc1nc(N)ncc1CC.Cl [Example 1] | 2.4 | 1.3
CCCCNc1nc(N)ncc1CCc1ccc2ccccc2n1.Cl [Example 7] | 0.5 | 1.2
CCCCNc1nc(N)ncc1CCc1ccccc1OC.Cl [Example 4] | 5 | 13
CCCCNc1nc(N)ncc1CCc1cccnc1.Cl [Example 5] | 1.2 | 1.4
CCCCNc1nc(N)ncc1CCc1ccccn1.Cl [Example 6] | 0.6 | 1.6
